Data published in ChEMBL document CHEMBL1201862, “PubChem BioAssay data set” (2004).
Calls of active or inactive are those of the source.

Tests used:
[1] = target: T1, High affinity choline transporter 1 (Homo sapiens, UniProt Q9GZV3); experiment: CHT activators, dose response, cell-based, 10-point CRC, membrane potential dye (AID 602376); type: functional
T1 sequence (Q9GZV3 whole entry): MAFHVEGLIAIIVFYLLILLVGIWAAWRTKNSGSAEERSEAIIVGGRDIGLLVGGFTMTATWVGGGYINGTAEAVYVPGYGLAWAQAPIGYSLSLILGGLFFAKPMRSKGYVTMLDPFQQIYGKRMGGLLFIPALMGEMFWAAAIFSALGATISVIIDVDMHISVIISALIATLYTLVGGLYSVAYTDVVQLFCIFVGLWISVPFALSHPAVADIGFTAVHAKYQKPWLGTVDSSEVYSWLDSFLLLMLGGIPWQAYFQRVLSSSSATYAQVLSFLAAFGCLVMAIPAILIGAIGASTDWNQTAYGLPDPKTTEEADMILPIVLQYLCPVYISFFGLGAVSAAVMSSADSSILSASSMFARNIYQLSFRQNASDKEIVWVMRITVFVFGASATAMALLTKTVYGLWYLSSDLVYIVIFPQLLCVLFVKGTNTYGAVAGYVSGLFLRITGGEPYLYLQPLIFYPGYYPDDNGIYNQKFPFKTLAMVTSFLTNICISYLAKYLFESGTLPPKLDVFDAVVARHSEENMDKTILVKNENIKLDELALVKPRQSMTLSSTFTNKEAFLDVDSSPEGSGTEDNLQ

[2] = target: Potassium voltage-gated channel subfamily KQT member 2 (Rattus norvegicus, UniProt O88943); experiment: KCNQ2 potassium channel inhibitors, dose response, cell-based, automated electrophysiology, set II, rat KCNQ2 (AID 588637); type: functional
Sequence of Potassium voltage-gated channel subfamily KQT member 2 (O88943 whole entry): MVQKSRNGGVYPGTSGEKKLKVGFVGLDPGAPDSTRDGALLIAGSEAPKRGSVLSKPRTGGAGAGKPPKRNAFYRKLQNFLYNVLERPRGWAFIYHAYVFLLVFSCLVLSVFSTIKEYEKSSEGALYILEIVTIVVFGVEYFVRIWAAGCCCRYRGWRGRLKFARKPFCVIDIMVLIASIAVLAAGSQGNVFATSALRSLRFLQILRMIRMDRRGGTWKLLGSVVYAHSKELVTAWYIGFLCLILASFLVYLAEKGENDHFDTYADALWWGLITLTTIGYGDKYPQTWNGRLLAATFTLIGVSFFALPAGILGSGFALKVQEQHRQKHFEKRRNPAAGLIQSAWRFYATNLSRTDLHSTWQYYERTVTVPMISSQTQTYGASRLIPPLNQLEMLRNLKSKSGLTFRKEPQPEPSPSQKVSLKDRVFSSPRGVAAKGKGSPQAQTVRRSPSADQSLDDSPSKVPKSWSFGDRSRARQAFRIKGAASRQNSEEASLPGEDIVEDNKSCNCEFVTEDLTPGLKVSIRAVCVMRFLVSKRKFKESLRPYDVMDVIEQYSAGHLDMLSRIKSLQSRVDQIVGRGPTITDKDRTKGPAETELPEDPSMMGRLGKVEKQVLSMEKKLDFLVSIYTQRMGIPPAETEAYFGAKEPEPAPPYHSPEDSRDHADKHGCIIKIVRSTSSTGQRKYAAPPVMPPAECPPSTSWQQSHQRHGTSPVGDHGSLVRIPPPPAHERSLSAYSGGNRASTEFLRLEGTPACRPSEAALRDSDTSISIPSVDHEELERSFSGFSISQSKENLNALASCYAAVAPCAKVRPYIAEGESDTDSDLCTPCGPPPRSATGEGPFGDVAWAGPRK

[3] = inhibitors of intracellular T. cruzi replication, confirmation, NIH3T3 host cells, beta-gal luminescence (AID 2044); type: functional, cell-based;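 note: intracellular parasites grown in NIH/3T3 mouse fibroblasts as host cells; luminescent beta-galactosidase reporter signal from transgenic T. cruzi replicating inside host cells; inhibitors lower the luminescence signal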
[4] = cytotoxicity toward NIH3T3 fibroblasts, dose response, counter-screen, cell-based, ATP luminescence, mouse fibroblasts (AID 2010); type: functional;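 note: cells exposed to compound for about 90 hours before reading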
[5] = cells
[6] = HeLa cell cytotoxicity, dose response, cytotoxicity control for MgcRacGAP inhibitor project (AID 624300); type: functional
[7] = target: T2, Tyrosyl-DNA phosphodiesterase 2 (Homo sapiens, UniProt O95551); experiment: human TDP2 enzyme inhibitors, dose response, biochemical, epi absorbance, IC50 (AID 743297)
T2 sequence (O95551 whole entry): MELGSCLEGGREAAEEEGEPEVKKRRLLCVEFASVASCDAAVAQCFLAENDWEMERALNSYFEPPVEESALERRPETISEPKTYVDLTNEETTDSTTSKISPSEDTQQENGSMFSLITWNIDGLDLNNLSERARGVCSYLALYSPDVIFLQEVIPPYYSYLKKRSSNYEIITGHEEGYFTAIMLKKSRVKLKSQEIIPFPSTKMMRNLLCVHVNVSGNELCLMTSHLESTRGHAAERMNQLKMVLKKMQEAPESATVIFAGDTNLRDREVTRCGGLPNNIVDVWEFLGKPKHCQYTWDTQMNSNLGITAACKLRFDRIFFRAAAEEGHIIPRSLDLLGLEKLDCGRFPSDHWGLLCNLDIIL

[8] = target: Mitochondrial peptide methionine sulfoxide reductase (Bos taurus, UniProt P54149); experiment: Absorbance-based biochemical high throughput dose response assay for activators of Methionine sulfoxide reductase A (MsrA).; type: functional
Sequence of Mitochondrial peptide methionine sulfoxide reductase (P54149 whole entry): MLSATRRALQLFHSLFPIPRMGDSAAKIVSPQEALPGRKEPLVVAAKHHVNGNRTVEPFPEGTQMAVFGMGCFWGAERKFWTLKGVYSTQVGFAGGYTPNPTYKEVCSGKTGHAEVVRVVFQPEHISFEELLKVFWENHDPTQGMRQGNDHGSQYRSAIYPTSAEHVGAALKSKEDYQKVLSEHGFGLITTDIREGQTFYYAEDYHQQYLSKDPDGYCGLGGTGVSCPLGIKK

[9] = target: T3, Rac GTPase-activating protein 1 (Homo sapiens, UniProt Q9H0H5); experiment: MgcRacGAP GTPase-activating activity inhibitors, confirmation, biochemical, ADP Hunter fluorescence, primary and confirmatory (AID 624330); type: functional
T3 sequence (Q9H0H5 whole entry): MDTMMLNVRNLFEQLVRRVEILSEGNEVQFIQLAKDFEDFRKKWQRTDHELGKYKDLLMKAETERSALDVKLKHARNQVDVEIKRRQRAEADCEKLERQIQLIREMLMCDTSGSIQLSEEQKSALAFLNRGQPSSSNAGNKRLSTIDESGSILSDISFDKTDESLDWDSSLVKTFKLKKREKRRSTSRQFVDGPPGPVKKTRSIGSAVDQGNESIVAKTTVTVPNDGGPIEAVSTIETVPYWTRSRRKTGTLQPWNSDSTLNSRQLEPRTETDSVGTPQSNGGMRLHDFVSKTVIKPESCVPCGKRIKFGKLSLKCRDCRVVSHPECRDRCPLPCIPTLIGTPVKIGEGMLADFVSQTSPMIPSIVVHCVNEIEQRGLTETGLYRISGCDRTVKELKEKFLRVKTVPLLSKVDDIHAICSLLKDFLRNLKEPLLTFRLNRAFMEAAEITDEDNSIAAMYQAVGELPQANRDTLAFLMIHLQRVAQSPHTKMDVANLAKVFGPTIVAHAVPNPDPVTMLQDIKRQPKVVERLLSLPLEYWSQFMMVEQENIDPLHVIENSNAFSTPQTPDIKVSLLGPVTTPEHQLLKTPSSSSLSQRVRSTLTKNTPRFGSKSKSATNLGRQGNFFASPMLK

[10] = target: T4, Sentrin-specific protease 7 (Homo sapiens, UniProt Q9BQF6); experiment: SENP7 protease inhibitors, SAR follow-up, biochemical, luminescence, set 2 (AID 588600); type: functional
T4 sequence (Q9BQF6 whole entry): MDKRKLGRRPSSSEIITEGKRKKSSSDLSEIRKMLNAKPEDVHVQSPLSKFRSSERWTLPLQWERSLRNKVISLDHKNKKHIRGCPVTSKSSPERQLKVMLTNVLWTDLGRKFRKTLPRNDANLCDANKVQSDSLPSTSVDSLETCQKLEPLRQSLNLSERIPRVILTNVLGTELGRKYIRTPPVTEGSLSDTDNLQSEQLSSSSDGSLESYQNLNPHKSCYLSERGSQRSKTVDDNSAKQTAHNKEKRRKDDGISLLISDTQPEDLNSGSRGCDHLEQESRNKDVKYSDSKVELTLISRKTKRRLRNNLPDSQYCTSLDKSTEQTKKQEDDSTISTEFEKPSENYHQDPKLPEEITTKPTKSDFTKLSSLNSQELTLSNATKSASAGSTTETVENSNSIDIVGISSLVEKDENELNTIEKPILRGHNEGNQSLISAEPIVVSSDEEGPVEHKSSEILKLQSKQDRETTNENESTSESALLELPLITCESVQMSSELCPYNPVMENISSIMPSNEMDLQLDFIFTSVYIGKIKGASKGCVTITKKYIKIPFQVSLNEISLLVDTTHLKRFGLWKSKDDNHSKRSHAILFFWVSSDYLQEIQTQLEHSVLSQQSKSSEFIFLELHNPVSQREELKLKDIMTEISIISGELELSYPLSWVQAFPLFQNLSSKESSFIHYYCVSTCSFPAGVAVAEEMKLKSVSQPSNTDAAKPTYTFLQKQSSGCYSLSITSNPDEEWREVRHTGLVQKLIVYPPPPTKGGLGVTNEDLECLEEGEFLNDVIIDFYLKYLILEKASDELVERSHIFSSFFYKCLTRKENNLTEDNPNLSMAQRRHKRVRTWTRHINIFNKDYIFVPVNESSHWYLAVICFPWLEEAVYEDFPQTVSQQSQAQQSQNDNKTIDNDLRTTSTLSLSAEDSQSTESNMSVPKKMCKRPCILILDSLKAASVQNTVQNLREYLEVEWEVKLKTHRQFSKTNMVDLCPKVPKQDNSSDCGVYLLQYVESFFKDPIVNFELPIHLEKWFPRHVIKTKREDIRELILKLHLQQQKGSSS

[11] = target: T5, Sentrin-specific protease 6 (Homo sapiens, UniProt Q9GZR1); experiment: SAR Analysis of small molecule inhibitors of Sentrin-specific protease 6 (SENP6) using a Luminescent assay. [Related pubchem assays (depositor defined):AID2582, AID2599]; type: functional
T5 sequence (Q9GZR1 whole entry): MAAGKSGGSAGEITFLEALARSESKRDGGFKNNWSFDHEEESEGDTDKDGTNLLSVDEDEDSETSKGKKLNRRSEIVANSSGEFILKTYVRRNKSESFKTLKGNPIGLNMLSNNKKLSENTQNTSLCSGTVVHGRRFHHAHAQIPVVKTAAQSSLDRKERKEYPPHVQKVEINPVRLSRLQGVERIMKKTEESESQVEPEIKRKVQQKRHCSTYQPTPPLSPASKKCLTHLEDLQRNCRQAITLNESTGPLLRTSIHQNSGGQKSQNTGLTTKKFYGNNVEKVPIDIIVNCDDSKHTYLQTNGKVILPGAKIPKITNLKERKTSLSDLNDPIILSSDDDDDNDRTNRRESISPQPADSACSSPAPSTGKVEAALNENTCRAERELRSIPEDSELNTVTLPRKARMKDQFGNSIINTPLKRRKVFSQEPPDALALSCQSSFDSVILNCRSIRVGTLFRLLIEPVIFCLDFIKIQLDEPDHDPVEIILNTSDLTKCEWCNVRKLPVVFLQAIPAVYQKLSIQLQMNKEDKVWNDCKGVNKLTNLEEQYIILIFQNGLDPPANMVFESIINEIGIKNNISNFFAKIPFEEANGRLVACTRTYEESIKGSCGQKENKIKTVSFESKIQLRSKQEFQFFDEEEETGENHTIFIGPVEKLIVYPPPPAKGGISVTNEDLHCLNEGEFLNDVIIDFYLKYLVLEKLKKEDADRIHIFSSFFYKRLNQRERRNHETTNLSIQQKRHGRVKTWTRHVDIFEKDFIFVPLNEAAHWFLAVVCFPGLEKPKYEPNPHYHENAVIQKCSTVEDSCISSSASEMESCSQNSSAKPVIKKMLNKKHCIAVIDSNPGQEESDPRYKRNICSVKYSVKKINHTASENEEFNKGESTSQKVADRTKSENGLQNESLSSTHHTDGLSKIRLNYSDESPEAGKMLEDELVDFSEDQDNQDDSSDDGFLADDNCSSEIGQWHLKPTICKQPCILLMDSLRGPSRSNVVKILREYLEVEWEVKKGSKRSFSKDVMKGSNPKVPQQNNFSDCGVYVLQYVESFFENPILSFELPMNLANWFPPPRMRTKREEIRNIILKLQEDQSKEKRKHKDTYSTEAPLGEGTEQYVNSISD

[12] = target: T6, Sentrin-specific protease 8 (Homo sapiens, UniProt Q96LD8); experiment: SENP8 protease inhibitors, SAR follow-up, biochemical, luminescence, set 2 (AID 588601); type: functional
T6 sequence (Q96LD8 whole entry): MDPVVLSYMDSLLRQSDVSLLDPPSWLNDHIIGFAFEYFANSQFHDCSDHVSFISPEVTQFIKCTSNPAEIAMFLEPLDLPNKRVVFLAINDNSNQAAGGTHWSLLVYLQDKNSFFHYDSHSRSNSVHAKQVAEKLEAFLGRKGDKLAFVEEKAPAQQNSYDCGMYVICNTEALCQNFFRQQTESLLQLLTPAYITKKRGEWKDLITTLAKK

[13] = target: T4, Sentrin-specific protease 7; experiment: SENP7 protease inhibitors, SAR follow-up, biochemical, luminescence (AID 504497); type: functional
[14] = target: T5, Sentrin-specific protease 6; experiment: SENP6 protease inhibitors, SAR follow-up, biochemical, luminescence, set 2 (AID 588598); type: functional
[15] = target: T7, Caspase-3 (Homo sapiens, UniProt P42574); experiment: SAR Analysis of small molecule inhibitors of Sentrin-specific proteases (SENPs) using a Caspase-3 Selectivity assay. [Related pubchem assays (depositor defined):AID2540, AID2599, AID434973, AID489001]; type: functional
T7 sequence (P42574 whole entry): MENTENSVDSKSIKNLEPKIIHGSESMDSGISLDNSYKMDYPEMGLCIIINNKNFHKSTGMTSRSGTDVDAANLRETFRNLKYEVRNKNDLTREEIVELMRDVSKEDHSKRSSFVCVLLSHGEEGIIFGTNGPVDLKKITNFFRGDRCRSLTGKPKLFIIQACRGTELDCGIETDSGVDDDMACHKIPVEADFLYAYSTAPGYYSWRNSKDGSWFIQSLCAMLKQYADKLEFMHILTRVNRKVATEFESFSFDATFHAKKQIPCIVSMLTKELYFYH

[16] = target: T6, Sentrin-specific protease 8; experiment: SENP8 protease inhibitors, SAR follow-up, biochemical, luminescence (AID 504501); type: functional
[17] = target: T7, Caspase-3; experiment: caspase-3 inhibitors as off-family protease, SAR follow-up, selectivity assay for SENP protease inhibitor project, biochemical, luminescence, set 2 (AID 588599); type: functional
[18] = target: Melanin-concentrating hormone receptor 1 (Homo sapiens, UniProt Q99705); experiment: Late-stage fluorescence-based counterscreen for antagonists of the G-protein coupled receptor 7 (GPR7): cell-based dose response assay to identify antagonists of the melanin-concentrating hormone receptor 1 (MCHR1) Set 6.; type: functional
Sequence of Melanin-concentrating hormone receptor 1 (Q99705 whole entry): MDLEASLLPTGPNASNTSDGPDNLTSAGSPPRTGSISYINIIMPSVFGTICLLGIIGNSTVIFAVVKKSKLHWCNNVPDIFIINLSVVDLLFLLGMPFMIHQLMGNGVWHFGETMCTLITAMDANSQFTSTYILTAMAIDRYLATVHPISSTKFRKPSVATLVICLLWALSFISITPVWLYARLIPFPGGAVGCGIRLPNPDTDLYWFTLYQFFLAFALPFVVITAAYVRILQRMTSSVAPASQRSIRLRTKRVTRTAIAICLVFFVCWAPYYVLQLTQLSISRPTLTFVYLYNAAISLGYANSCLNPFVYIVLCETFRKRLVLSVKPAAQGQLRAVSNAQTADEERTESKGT

Which EC50 [1] does the source give for `CCCCc1n(C)c2ccccc2[n+]1CC(=O)c1ccc(Cl)cc1` here?
The EC50 was 9.58 µM (active).

Which IC50 [2] does the source give for `CCN(CC)S(=O)(=O)c1ccc(N2CCOCC2)c(NC(=O)COc2ccccc2)c1` here?
Its IC50 is 2.96 µM (active).

What does the source list for `CCN(CC)S(=O)(=O)c1cnccc1N1CCN(c2cccc(Cl)c2)CC1`?
EC50 [1]: 24.7 µM (active); EC50 [3]: < 0.1 µM (active); EC50 [4]: > 60 µM (not active); EC50 [5]: 0.268 µM (active)

Which CC50 [6] does the source give for `C[n+]1c(-c2ccccc2)cc2c(=Cc3ccccc3)c3ccccc3n21` here?
The CC50 was 26.3 µM (active).

What about the IC50 [7] of the same molecule?
The IC50 was > 128 µM (inactive).

And the EC50 [8]?
The EC50 was > 104 µM (inactive).

What about the IC50 [9] of the same molecule?
Its IC50 is 58.9 µM (active).

With `Fc1ccc(-c2nc(/C=C/c3ccccc3)no2)cc1` as the molecule, how does the IC50 [10] read?
Its IC50 is 11.1 µM (active).

What about the IC50 [11] of the same molecule?
The IC50 was 32 µM (active).

And the IC50 [12]?
The IC50 was 11.7 µM (active).

And the IC50 [13]?
The IC50 was 14 µM (active).

And the IC50 [14]?
The IC50 was 11.7 µM (active).

What about the IC50 [15] of the same molecule?
Its IC50 is 37 µM (active).

What about the IC50 [16] of the same molecule?
The IC50 was 33 µM (active).

What about the IC50 [17] of the same molecule?
The IC50 was 33.8 µM (active).

For `COc1cc(/C=C(/C#N)c2nc(-c3ccc(C)cc3)no2)ccc1OCc1cccc(C(F)(F)F)c1`, which IC50 [10] is on record?
The IC50 was > 99 µM (inactive).

And the IC50 [12]?
Its IC50 is > 99 µM (inactive).

What about the IC50 [14] of the same molecule?
The IC50 was > 99 µM (inactive).

What about the IC50 [17] of the same molecule?
The IC50 was > 99 µM (inactive).

For `COc1ccc(Oc2c(Cl)cnn(CC(=O)N3c4ccccc4CC3C)c2=O)cc1` (stereo not drawn), which IC50 [18] is on record?
The IC50 was 0.781 µM (active).
